Patent US20070225355A1, “Dietary Compositions for Enhancing Metabolism and Reducing Reactive Oxygen Species” (Elixirin Corporation, priority 2004, published 2007)

What was measured:
[1] = test system: Fischer 344 male rats; assay: Morris water maze spatial memory test in rats; type: in vivo, rat; conditions: fed 7 weeks, 4 consecutive days, 4 trials per day, averaged, standard deviation around 20%
Description: FIG. 1 of 2 depicts measurements of spatial memory in (Fischer 344 male rats) subjected to a water maze test, after treatment with carnitine, lipoic acid, and/or polyphenol. […] The Morris maze task tests spatial memory by requiring rats to fmd a submerged platform in a pool of water using external visual cues (Morris, R. 1984; J. Neurosci. Methods, 11:47-60; Schenk, F. and Morris, R, Exp. Brain Res. 58:11-28, 1985). The rats in the experimental group (5 each) were fed either 0.5% (wt/vol) acetyl-L-carnitine in water, 1.0% (wt/vol) polyphenol in water; 0.2% (wt/wt) lipoic acid in AIN93M diet, or a combination of the above. Rats were acclimated for one week before experiments. Rats were fed for the above treatment for 7 weeks before tests. Trials (4 consecutive days, 4 trials per day) were conducted and the results averaged. The standard deviation is around 20%. Control rats were fed with water and AIN93M diet only.

[2] = test system: oxidation level of DNA; assay: Oxidation level of DNA in hippocampus sections (anti-8-hydroxy-2'-deoxyguanosine/8-hydroxyguanosine immunocytochemistry); type: in vivo; conditions: rat brain hippocampus sections, fed 7 weeks; mean of 5 animals; standard deviation about 15%
Description: The rats in the experimental group (5 each) were fed either 0.5% (wt/vol) acetyl-L-camitine in water, 1.0% (wt/vol) polyphenol in water; 0.2% (wt/wt) lipoic acid in AIN93M diet, or a combination of the above. Rats were acclimated for one week before experiments. Rats were fed for the above treatment for 7 weeks before tests. Control rats were fed with water and AIN93M diet only. For assaying DNA oxidation, rats from each treatment group (5 animals per group) was anesthetized with ether and perfused with paraformaldehyde. The brain was removed and postfixed for paraffin sections. Sections of hippocampus were incubated with anti-8-hydroxy-2′-deoxyguanosine/8-hydroxyguanosine and visualized by using standard immunocytochemical methods. Quantification of oxidation was done as described in Liu, J K, et al., (Proc. Natl. Acad. Sci USA, 99:1356-2361, 2002). Values are a mean of 5 animals. The standard deviation is about 15%.

## O=C(O)CCCC[C@@H]1CCSS1 (racemic) [lipoic acid]
[1]
  mastery of the water maze, faster over no treatment: ~79%
[2]
  DNA oxidation level compared with rats having no treatment: ~82%
